Reference: patent publication US20070213359A1 (ACADIA Pharmaceuticals Inc., priority 2005, published 2007)

Biological target: Ghrelin receptor (Homo sapiens, UniProt Q92847)
Assay: Receptor Selection and Amplification Technology (R-SAT) assay
Format: cell-based
Set-up: expressed in transfected cells; host or cells: NIH3T3
Settings: for IC50: negative logarithm of ligand concentration causing 50% inhibition of constitutive receptor response, transfected NIH3T3 cells, '—' not defined (nd used separately), read-out: RSAT pIC50 (converted); for Emax: percent inhibition at saturating ligand, normalized to reference ligand Substance P analog = 100%, read-out: RSAT Eff(%)

Ghrelin receptor, sequence (Q92847 whole entry): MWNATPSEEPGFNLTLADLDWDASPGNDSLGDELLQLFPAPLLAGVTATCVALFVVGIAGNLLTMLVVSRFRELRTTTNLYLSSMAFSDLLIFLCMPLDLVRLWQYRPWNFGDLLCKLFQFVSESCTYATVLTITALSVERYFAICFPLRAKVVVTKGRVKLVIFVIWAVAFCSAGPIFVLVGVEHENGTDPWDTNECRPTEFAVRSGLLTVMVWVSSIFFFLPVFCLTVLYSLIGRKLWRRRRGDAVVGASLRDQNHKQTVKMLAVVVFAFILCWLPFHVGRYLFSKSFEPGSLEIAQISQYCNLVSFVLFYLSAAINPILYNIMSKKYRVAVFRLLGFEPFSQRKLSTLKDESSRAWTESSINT

| SMILES | IC50 [µM] | Emax [%] |
| --- | --- | --- |
| COc1ccc2c(c1)c(C(C)=O)cn2CCCN1CCC(C(=O)c2ccccc2)CC1 | 1 | 72 |
| COc1ccc2c(c1)c(C(C)=O)cn2CCCN1CCC(Oc2ccccc2Cl)CC1 | 1 | 95 |
| COc1cccc2c(C(C)=O)cn(CCCN3CCC4CCCCC4C3)c12 (stereo not shown) | 1 | 69 |
| CC(=O)c1cn(CCCN2CCCC(Oc3ccc(Cl)cc3)C2)c2c(Br)cccc12 (stereo not shown) | 1.26 | 46 |
| CC(=O)CCc1cn(CCCN2CCC(Oc3ccc(F)cc3)CC2)c2ccccc12 | 1.26 | 80 |
| CCCCC(=O)c1cn(CCCN2CCN(C(C)c3ccccc3)CC2)c2ccc(OC)cc12 (stereo not shown) | 1.26 | 81 |
| COc1ccc2c(c1)c(C(C)=O)cn2CCCN1C2CCC1CC(Oc1ccc(Cl)cc1)C2 (stereo not shown) | 1.26 | 105 |
| CCCOC1CCN(CCCn2cc(C(C)=O)c3ccc(OC)cc32)CC1 | 1.26 | 61 |
| CC(=O)c1cn(CCCN2CCC(Oc3ccc(Cl)cc3)CC2)c2cc(Br)ccc12 | 1.26 | 74 |
| CC(=O)c1c(C)n(CCCN2CCN(CCOc3ccccc3)CC2)c2c(Br)cccc12 | 1.26 | 57 |
| CC(=O)c1cn(CCCN2CCN(C(C)c3ccccc3)CC2)c2ccc(Br)cc12 (stereo not shown) | 1.26 | 72 |
| O=C(c1cn(CCCN2CCC(Oc3ccc(Cl)cc3)CC2)c2ccccc12)C(F)(F)F | 1.58 | 77 |
| CCC(=O)c1cn(CCCN2CCC(Cc3ccccc3)CC2)c2ccccc12 | 1.58 | 109 |
| CC(C)CC(=O)c1cn(CCCN2CCC(Oc3ccccc3Cl)CC2)c2ccccc12 | 1.58 | 96 |
| COc1ccccc1C1CCN(CCCn2cc(C(=O)C(F)(F)F)c3ccccc32)CC1 | 1.58 | 82 |
| CCCCC1CCN(CC(C)Cn2c(=O)sc3ccccc32)CC1 (stereo not shown) | 2 | 84 |
| CCCCC1CCN(CC(C)Cn2cc(C(C)=O)c3ccccc32)CC1 (stereo not shown) | 2 | 76 |
| COc1ccccc1C1CCN(CCCCn2cc(C(C)=O)c3ccccc32)CC1 | 2 | 58 |
| CC(=O)c1cn(CCCCN2CCN(C(C)c3ccccc3)CC2)c2ccccc12 (stereo not shown) | 2 | 69 |
| O=C(c1cn(CCCN2CCC(Oc3ccccc3Cl)CC2)c2ccccc12)C(F)(F)F | 2 | 81 |
| COc1ccc2c(c1)c(C(C)=O)cn2CCCN1CCC(c2ccccc2OC)CC1 | 2 | 66 |

| SMILES | IC50 [µM] | Emax [%] |
| --- | --- | --- |
| CC(=O)CCc1cn(CCCN2CCN(C(C)c3ccccc3)CC2)c2ccccc12 (stereo not shown) | 2 | 46 |
| CC(C)CC(=O)c1cn(CCCN2CCC(C(=O)c3ccccc3)CC2)c2ccccc12 | 2 | 67 |
| CC(=O)c1cn(CCCN2CCC(Oc3ccc(Cl)cc3)CC2)c2c(Cl)cccc12 | 2 | 107 |
| CCCOC1CCN(CC(C)Cn2c(=O)sc3ccccc32)CC1 (stereo not shown) | 2.51 | 71 |
| COc1cccc2c(C(C)=O)cn(CCCN3CCC(N(C)C(C)=O)C3)c12 (stereo not shown) | 2.51 | 60 |
| CCC(=O)c1cn(CCCN2C3CCC2CC(OCC2CC2)C3)c2ccccc12 (stereo not shown) | 2.51 | 120 |
| CC(=O)c1cn(CC(C)CN2CCC(c3nc4ccccc4s3)CC2)c2ccccc12 (stereo not shown) | 2.51 | 78 |
| CC(=O)c1cn(CCCN2CCC(Oc3ccc(F)cc3)CC2)c2cc(Br)ccc12 | 2.51 | 64 |
| CCC(=O)c1cn(CCCN2CCN(C(C)c3ccccc3)CC2)c2ccccc12 (stereo not shown) | 2.51 | 57 |
| CC(=O)c1cn(CCN2C3CCC2CC(O)(c2ccc(F)cc2)C3)c2ccccc12 (stereo not shown) | 2.51 | -11 |
| CC(=O)CCc1cn(CCCN2CCC(c3nc4ccccc4s3)CC2)c2ccccc12 | 2.51 | 84 |
| COc1ccc2[nH]c3c(c2c1)CCN(CCCn1cc(C(=O)C(F)(F)F)c2ccccc21)C3 | 2.51 | 106 |
| CC(=O)c1cn(CCCCN2C3CCC2CC(Oc2ccc(Cl)cc2)C3)c2ccccc12 (stereo not shown) | 3.16 | 119 |
| CC(=O)c1cn(CC(O)CN2CCC(Oc3ccccc3Cl)CC2)c2ccccc12 (stereo not shown) | 3.16 | 69 |
| CCCCC1CCN(CCCn2cc(C(C)=O)c3ccc(Br)cc32)CC1 | 3.16 | 93 |
| CC(=O)c1cn(CC(O)CN2CCC(Oc3ccc(Cl)cc3)CC2)c2ccccc12 (stereo not shown) | 3.16 | 73 |
| CC(=O)CCc1cn(CCCN2C3CCC2CC(OCC2CC2)C3)c2ccccc12 (stereo not shown) | 3.16 | 103 |
| COc1ccc2c(C(C)=O)cn(CCCN3CCC(C(C)c4ccccc4)CC3)c2c1 (stereo not shown) | 3.16 | 73 |
| O=C(c1cn(CCCN2CCC(O)(Cc3ccccc3)CC2)c2ccccc12)C(F)(F)F | 3.98 | 111 |
| CC(=O)c1cn(CC(C)CN2CCC(Cc3ccccc3)CC2)c2ccccc12 (stereo not shown) | 3.98 | 121 |
